Results on three compounds are retold here after ChEMBL document CHEMBL1132462, “Molecular modeling studies on G-quadruplex complexes of telomerase inhibitors: structure-activity relationships” (J Med Chem, 1999).

Each structure is given as a SMILES string.

The target of the experiment is Telomerase reverse transcriptase (Homo sapiens, UniProt O14746). In words: Inhibitory activity against Telomerase evaluated by TRAP Assay studies.
Chain of Telomerase reverse transcriptase (O14746 whole entry): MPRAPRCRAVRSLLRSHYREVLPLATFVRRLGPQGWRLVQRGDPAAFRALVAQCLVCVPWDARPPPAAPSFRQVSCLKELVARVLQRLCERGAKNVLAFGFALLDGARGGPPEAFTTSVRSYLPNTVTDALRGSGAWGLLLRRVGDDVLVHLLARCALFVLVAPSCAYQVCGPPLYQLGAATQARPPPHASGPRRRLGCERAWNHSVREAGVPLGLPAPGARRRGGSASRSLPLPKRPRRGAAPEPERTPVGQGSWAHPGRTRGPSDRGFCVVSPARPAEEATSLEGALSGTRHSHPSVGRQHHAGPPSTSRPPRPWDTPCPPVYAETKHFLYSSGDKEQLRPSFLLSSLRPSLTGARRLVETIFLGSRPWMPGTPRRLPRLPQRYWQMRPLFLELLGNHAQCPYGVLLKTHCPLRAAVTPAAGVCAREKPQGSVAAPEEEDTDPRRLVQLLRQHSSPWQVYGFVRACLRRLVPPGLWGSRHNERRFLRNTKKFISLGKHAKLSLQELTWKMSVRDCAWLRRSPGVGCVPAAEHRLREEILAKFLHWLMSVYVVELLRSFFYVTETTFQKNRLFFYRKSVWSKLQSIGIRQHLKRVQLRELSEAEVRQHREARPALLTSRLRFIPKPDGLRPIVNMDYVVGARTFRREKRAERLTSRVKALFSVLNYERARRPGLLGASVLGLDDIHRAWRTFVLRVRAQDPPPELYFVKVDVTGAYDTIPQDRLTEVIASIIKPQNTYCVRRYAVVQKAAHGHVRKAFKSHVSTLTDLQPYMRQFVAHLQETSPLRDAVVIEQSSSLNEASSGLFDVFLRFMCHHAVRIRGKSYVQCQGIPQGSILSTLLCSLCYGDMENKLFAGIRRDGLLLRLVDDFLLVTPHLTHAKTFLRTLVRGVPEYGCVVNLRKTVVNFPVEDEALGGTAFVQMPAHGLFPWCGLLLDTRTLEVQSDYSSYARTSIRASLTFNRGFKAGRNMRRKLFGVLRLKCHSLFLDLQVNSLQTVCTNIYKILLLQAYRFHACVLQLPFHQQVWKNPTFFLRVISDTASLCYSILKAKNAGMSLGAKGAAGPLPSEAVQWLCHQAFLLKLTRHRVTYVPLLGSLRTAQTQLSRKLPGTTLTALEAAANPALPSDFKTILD
`O=C(CCN1CCCCCC1)Nc1ccc2c(c1)C(=O)c1ccc(NC(=O)CCN3CCCCCC3)cc1C2=O` yielded an IC50 of 13 µM. As for `O=C(CCN1CCCCCCC1)Nc1ccc2c(c1)C(=O)c1ccc(NC(=O)CCN3CCCCCCC3)cc1C2=O`, the half-inhibitory concentration (IC50) is > 50 µM. In the case of `CC1(C)CC2CC(C)(CN2CCC(=O)Nc2ccc3c(c2)C(=O)c2ccc(NC(=O)CCN4CC5(C)CC4CC(C)(C)C5)cc2C3=O)C1`, the IC50 was > 50 µM.
